# Measurements reported in US20230303561A1, “PYRIMIDINONE DERIVATIVE, PREPARATION METHOD THEREOF AND USE THEREOF IN RESISTING MYCOBACTERIUM TUBERCULOSIS INFECTION” (INSTITUTE OF MEDICINAL BIOTECHNOLOGY, CHINESE ACADEMY OF …, priority 2020, published 2023).
# Test system: MTB H37Rv
# Assay: Bacteriostasis experiment: MIC in 96-well plate, two-fold dilution method
# Format: cell-based, Mycobacterium tuberculosis
# Conditions: MTB H37Rv (ATCC 27294), 7H9 medium, 37° C., about 10 days
row,Compound,"Inhibitory activity against Mycobacterium tuberculosis, MIC, MTB H37Rv [µg/mL]"
1,"CSc1nc2c(c(=O)[nH]1)C(c1cccc([N+](=O)[O-])c1)CC(=O)N2 (stereo not drawn) [LSL-9-09, 2-methylmercapto-5-(3-nitrophenyl)-5,6-dihydropyrido[2,3-d]pyrimidin-4,7(3H,8H)-dione]",64

# Same assay, conditions: MTB H37Rv, statement on Table 1 data
row,Compound,anti-mycobacterium tuberculosis MIC compared with the positive control drug INH
1,"CCCSc1nc2c(c(=O)[nH]1)C(c1ccc(OC)cc1O)CC(=O)N2 (stereo not drawn) [LSL-9-02, 2-propylmercapto-5-(2-hydroxy-4-methoxyphenyl)-5,6-dihydropyrido[2,3-d]pyrimidin-4,7(3H,8H)-dione]",equivalent to that of the positive control drug INH
2,"CCCOc1ccc(C2CC(=O)Nc3nc(SCCC)[nH]c(=O)c32)c(O)c1 (stereo not drawn) [LSL-9-29, 2-propylmercapto-5-(2-hydroxy-4-propoxyphenyl)-5,6-dihydropyrido[2,3-d]pyrimidin-4,7(3H,8H)-dione]",equivalent to that of the positive control drug INH
3,"CCCSc1nc2c(c(=O)[nH]1)C(c1ccc3ncccc3c1)CC(=O)N2 (stereo not drawn) [LSL-9-36, 2-propylmercapto-5-(quinolin-6-yl)-5,6-dihydropyrido[2,3-d]pyrimidin-4,7(3H,8H)-dione]",equivalent to that of the positive control drug INH
4,"CCCSc1nc2c(c(=O)[nH]1)C(c1ccc(OCC)cc1)CC(=O)N2 (stereo not drawn) [LSL-9-39, 2-propylmercapto-5-(4-ethoxyphenyl)-5,6-dihydropyrido[2,3-d]pyrimidin-4,7(3H,8H)-dione]",equivalent to that of the positive control drug INH
5,"CCCSc1nc2c(c(=O)[nH]1)C(c1ccc(OC)cc1[N+](=O)[O-])CC(=O)N2 (stereo not drawn) [LSL-9-41, 2-propylmercapto-5-(4-methoxy-2-nitrophenyl)-5,6-dihydropyrido[2,3-d]pyrimidin-4,7(3H,8H)-dione]",equivalent to that of the positive control drug INH

# Same assay, conditions: Mycobacterium tuberculosis, ATCC 27294 / H37Rv, 240 h, MTB H37Rv (ATCC 27294), 7H9 medium, 37° C., about 10 days; read-out: Inhibitory activity against Mycobacterium tuberculosis, MIC, MTB H37Rv
row,Compound,MIC [µg/mL]
1,"CCCOc1ccc(C2CC(=O)Nc3nc(SC)[nH]c(=O)c32)cc1 (stereo not drawn) [LSL-7-36, 2-methylmercapto-5-(4-propoxyphenyl)-5,6-dihydropyrido[2,3-d]pyrimidin-4,7(3H,8H)-dione]",32
2,"CCCSc1nc2c(c(=O)[nH]1)C(c1ccc(OC)c(O)c1)CC(=O)N2 (stereo not drawn) [LSL-7-38, 2-propylmercapto-5-(3-hydroxy-4-methoxyphenyl)-5,6-dihydropyrido[2,3-d]pyrimidin-4,7(3H,8H)-dione]",1
3,"COc1ccc(C2CC(=O)Nc3nc(SC)[nH]c(=O)c32)cc1O (stereo not drawn) [LSL-7-39, 2-methylmercapto-5-(3-hydroxy-4-methoxyphenyl)-5,6-dihydropyrido[2,3-d]pyrimidin-4,7(3H,8H)-dione]",16
4,"CCCSc1nc2c(c(=O)[nH]1)C(c1ccc(O)c(O)c1)CC(=O)N2 (stereo not drawn) [LSL-7-42, 2-propylmercapto-5-(3,4-dihydroxyphenyl)-5,6-dihydropyrido[2,3-d]pyrimidin-4,7(3H,8H)-dione]",32
5,"COc1cc(C2CC(=O)Nc3nc(SC)[nH]c(=O)c32)cc(OC)c1OC (stereo not drawn) [LSL-7-43, 2-methylmercapto-5-(3,4,5-trimethoxyphenyl)-5,6-dihydropyrido[2,3-d]pyrimidin-4,7(3H,8H)-dione]",> 64
6,"CCCSc1nc2c(c(=O)[nH]1)C(c1cc(OC)c(OC)c(OC)c1)CC(=O)N2 (stereo not drawn) [LSL-7-44, 2-propylmercapto-5-(3,4,5-trimethoxyphenyl)-5,6-dihydropyrido[2,3-d]pyrimidin-4,7(3H,8H)-dione]",16
7,"CCCSc1nc2c(c(=O)[nH]1)C(c1ccc(OC)c(OC)c1)CC(=O)N2 (stereo not drawn) [LSL-7-46, 2-propylmercapto-5-(3,4-dimethoxyphenyl)-5,6-dihydropyrido[2,3-d]pyrimidin-4,7(3H,8H)-dione]",8
8,"CCCSc1nc2c(c(=O)[nH]1)C(c1ccc(Cl)c([N+](=O)[O-])c1)CC(=O)N2 (stereo not drawn) [LSL-7-48, 2-propylmercapto-5-(3-nitro-4-chlorophenyl)-5,6-dihydropyrido[2,3-d]pyrimidin-4,7(3H,8H)-dione]",2
9,"CSc1nc2c(c(=O)[nH]1)C(c1ccc([N+](=O)[O-])cc1)CC(=O)N2 (stereo not drawn) [LSL-7-49, 2-methylmercapto-5-(4-nitrophenyl)-5,6-dihydropyrido[2,3-d]pyrimidin-4,7(3H,8H)-dione]",64
10,"CCCSc1nc2c(c(=O)[nH]1)C(c1ccc([N+](=O)[O-])cc1)CC(=O)N2 (stereo not drawn) [LSL-7-50, 2-propylmercapto-5-(4-nitrophenyl)-5,6-dihydropyrido[2,3-d]pyrimidin-4,7(3H,8H)-dione]",64
11,"COc1ccc(C2CC(=O)Nc3nc(SC)[nH]c(=O)c32)c(O)c1 (stereo not drawn) [LSL-9-01, 2-methylmercapto-5-(2-hydroxy-4-methoxyphenyl)-5,6-dihydropyrido[2,3-d]pyrimidin-4,7(3H,8H)-dione]",8
12,"CCCSc1nc2c(c(=O)[nH]1)C(c1ccc(OC)cc1O)CC(=O)N2 (stereo not drawn) [LSL-9-02, 2-propylmercapto-5-(2-hydroxy-4-methoxyphenyl)-5,6-dihydropyrido[2,3-d]pyrimidin-4,7(3H,8H)-dione]",0.5
13,"CCCSc1nc2c(c(=O)[nH]1)C(c1cccc([N+](=O)[O-])c1)CC(=O)N2 (stereo not drawn) [LSL-9-10, 2-propylmercapto-5-(3-nitrophenyl)-5,6-dihydropyrido[2,3-d]pyrimidin-4,7(3H,8H)-dione]",4
14,"C=CCSc1nc2c(c(=O)[nH]1)C(c1ccc(OC)c(O)c1)CC(=O)N2 (stereo not drawn) [LSL-9-15, 2-allylmercapto-5-(3-hydroxy-4-methoxyphenyl)-5,6-dihydropyrido[2,3-d]pyrimidin-4,7(3H,8H)-dione]",2
15,"C=CCSc1nc2c(c(=O)[nH]1)C(c1ccc(OC)c(OC)c1)CC(=O)N2 (stereo not drawn) [LSL-9-17, 2-allylmercapto-5-(3,4-dimethoxyphenyl)-5,6-dihydropyrido[2,3-d]pyrimidin-4,7(3H,8H)-dione]",8
16,"CCCSc1nc2c(c(=O)[nH]1)C(c1ccc(I)cc1)CC(=O)N2 (stereo not drawn) [LSL-9-19, 2-propylmercapto-5-(4-iodophenyl)-5,6-dihydropyrido[2,3-d]pyrimidin-4,7(3H,8H)-dione]",> 64
17,"CCCSc1nc2c(c(=O)[nH]1)C(c1ccc(OC)c(O)c1O)CC(=O)N2 (stereo not drawn) [LSL-9-23, 2-propylmercapto-5-(2,3-dihydroxy-4-methoxyphenyl)-5,6-dihydropyrido[2,3-d]pyrimidin-4,7(3H,8H)-dione]",64
18,"CCCOc1ccc(C2CC(=O)Nc3nc(SCCC)[nH]c(=O)c32)cc1O (stereo not drawn) [LSL-9-25, 2-propylmercapto-5-(3-hydroxy-4-propoxyphenyl)-5,6-dihydropyrido[2,3-d]pyrimidin-4,7(3H,8H)-dione]",4

row,Compound,MIC [µg/mL]
1,"CCCSc1nc2c(c(=O)[nH]1)C(c1ccc(Br)cc1)CC(=O)N2 (stereo not drawn) [LSL-9-26, 2-propylmercapto-5-(4-bromophenyl)-5,6-dihydropyrido[2,3-d]pyrimidin-4,7(3H,8H)-dione]",2
2,"CCCSc1nc2c(c(=O)[nH]1)C(c1ccc(F)cc1)CC(=O)N2 (stereo not drawn) [LSL-9-27, 2-propylmercapto-5-(4-fluorophenyl)-5,6-dihydropyrido[2,3-d]pyrimidin-4,7(3H,8H)-dione]",> 64
3,"CCCOc1ccc(C2CC(=O)Nc3nc(SCCC)[nH]c(=O)c32)c(O)c1 (stereo not drawn) [LSL-9-29, 2-propylmercapto-5-(2-hydroxy-4-propoxyphenyl)-5,6-dihydropyrido[2,3-d]pyrimidin-4,7(3H,8H)-dione]",0.5
4,"CCCSc1nc2c(c(=O)[nH]1)C(c1ccc(OCc3ccccc3)cc1)CC(=O)N2 (stereo not drawn) [LSL-9-31, 2-propylmercapto-5-(4-benzyloxyphenyl)-5,6-dihydropyrido[2,3-d]pyrimidin-4,7(3H,8H)-dione]",16
5,"CCCSc1nc2c(c(=O)[nH]1)C(c1ccc(Oc3ccccc3)cc1)CC(=O)N2 (stereo not drawn) [LSL-9-32, 2-propylmercapto-5-(4-phenoxyphenyl)-5,6-dihydropyrido[2,3-d]pyrimidin-4,7(3H,8H)-dione]",> 64
6,"CCCSc1nc2c(c(=O)[nH]1)C(c1cc(O)c(O)c(O)c1)CC(=O)N2 (stereo not drawn) [LSL-9-33, 2-propylmercapto-5-(3,4,5-trihydroxyphenyl)-5,6-dihydropyrido[2,3-d]pyrimidin-4,7(3H,8H)-dione]",64
7,"CCCSc1nc2c(c(=O)[nH]1)C(c1ccc(OC(F)(F)F)cc1)CC(=O)N2 (stereo not drawn) [LSL-9-35, 2-propylmercapto-5-(4-trifluoromethoxyphenyl)-5,6-dihydropyrido[2,3-d]pyrimidin-4,7(3H,8H)-dione]",64
8,"CCCSc1nc2c(c(=O)[nH]1)C(c1ccc3ncccc3c1)CC(=O)N2 (stereo not drawn) [LSL-9-36, 2-propylmercapto-5-(quinolin-6-yl)-5,6-dihydropyrido[2,3-d]pyrimidin-4,7(3H,8H)-dione]",0.125
9,"CCCSc1nc2c(c(=O)[nH]1)C(c1ccc(C)cc1)CC(=O)N2 (stereo not drawn) [LSL-9-37, 2-propylmercapto-5-(4-methylphenyl)-5,6-dihydropyrido[2,3-d]pyrimidin-4,7(3H,8H)-dione]",2
10,"CCCSc1nc2c(c(=O)[nH]1)C(c1ccc(C(F)(F)F)cc1)CC(=O)N2 (stereo not drawn) [LSL-9-38, 2-propylmercapto-5-(4-trifluoromethylphenyl)-5,6-dihydropyrido[2,3-d]pyrimidin-4,7(3H,8H)-dione]",16
11,"CCCSc1nc2c(c(=O)[nH]1)C(c1ccc(OCC)cc1)CC(=O)N2 (stereo not drawn) [LSL-9-39, 2-propylmercapto-5-(4-ethoxyphenyl)-5,6-dihydropyrido[2,3-d]pyrimidin-4,7(3H,8H)-dione]",0.5
12,"CCCSc1nc2c(c(=O)[nH]1)C(c1ccc(OC)c([N+](=O)[O-])c1)CC(=O)N2 (stereo not drawn) [LSL-9-40, 2-propylmercapto-5-(4-methoxy-3-nitrophenyl)-5,6-dihydropyrido[2,3-d]pyrimidin-4,7(3H,8H)-dione]",4
13,"CCCSc1nc2c(c(=O)[nH]1)C(c1ccc(OC)cc1[N+](=O)[O-])CC(=O)N2 (stereo not drawn) [LSL-9-41, 2-propylmercapto-5-(4-methoxy-2-nitrophenyl)-5,6-dihydropyrido[2,3-d]pyrimidin-4,7(3H,8H)-dione]",0.125
14,"CCCSc1nc2c(c(=O)[nH]1)C(c1ccc(Cl)c(N)c1)CC(=O)N2 (stereo not drawn) [LSL-9-43, 2-propylmercapto-5-(3-amino-4-chlorophenyl)-5,6-dihydropyrido[2,3-d]pyrimidin-4,7(3H,8H)-dione]",4
15,"CCCSc1nc2c(c(=O)[nH]1)C(c1ccc(N)cc1)CC(=O)N2 (stereo not drawn) [LSL-9-44, 2-propylmercapto-5-(4-aminophenyl)-5,6-dihydropyrido[2,3-d]pyrimidin-4,7(3H,8H)-dione]",16
16,"CCCSc1nc2c(c(=O)[nH]1)C(c1cccc(OC)c1)CC(=O)N2 (stereo not drawn) [LSL-9-47, 2-propylmercapto-5-(3-methoxyphenyl)-5,6-dihydropyrido[2,3-d]pyrimidin-4,7(3H,8H)-dione]",4
17,"CCCSc1nc2c(c(=O)[nH]1)C(c1ccccc1OC)CC(=O)N2 (stereo not drawn) [LSL-9-48, 2-propylmercapto-5-(2-methoxyphenyl)-5,6-dihydropyrido[2,3-d]pyrimidin-4,7(3H,8H)-dione]",16
18,"CCCSc1nc2c(c(=O)[nH]1)C(c1cccc(O)c1)CC(=O)N2 (stereo not drawn) [LSL-9-49, 2-propylmercapto-5-(3-hydroxyphenyl)-5,6-dihydropyrido[2,3-d]pyrimidin-4,7(3H,8H)-dione]",16
